This note sets out measurements from ChEMBL document CHEMBL3526086, “Identification of the oxidative and conjugative enzymes involved in the biotransformation of brivanib” (Drug Metab Dispos, 2012).

Series [1] relates to Liver microsome. Kind of series: Drug metabolism in human liver microsomes assessed as (R)-4-fluoro-5-(6-(2-hydroxypropoxy)-5-methylpyrrolo[1,2-f][1,2,4]triazin-4-yloxy)-1H-indole-2-carboxylic acid formation at 2 uM for 60 mins by LC/MS analysis. The series is classed as ADME. (In general: Microsomes from liver hold many membrane-bound enzymes, among them those of drug oxidation.)

Series [2] has as its system Liver cytosol. Kind of series: Drug metabolism in human liver cytosol assessed as (R)-4-fluoro-5-(5-methyl-6-(2-sulfopropoxy)pyrrolo[1,2-f][1,2,4]triazin-4-yloxy)-1H-indole-2-carboxylic acid formation at 2 uM for 60 mins by LC/MS analysis in presence of PAPS. The series is classed as ADME.
Series [3] concerns Liver cytosol. The series can be described thus: Drug metabolism in human liver cytosol assessed as (R)-4-fluoro-5-(6-(2-hydroxypropoxy)-5-methylpyrrolo[1,2-f][1,2,4]triazin-4-yloxy)-1H-indole-2-carboxylic acid formation at 2 uM for 60 mins by LC/MS analysis. The series is classed as ADME, tissue-based.
The subject of series [4] is Liver cytosol. The series can be described thus: Drug metabolism in human liver cytosol assessed as (R)-4-fluoro-5-(6-(2-hydroxypropoxy)-5-methylpyrrolo[1,2-f][1,2,4]triazin-4-yloxy)-1H-indole-2-carboxylic acid formation at 2 uM for 60 mins by LC/MS analysis in presence of NADPH. The series is classed as ADME.
Series [5] deals with Liver cytosol. The series can be described thus: Drug metabolism in human liver cytosol assessed as (R)-1-(4-(4-fluoro-2-(hydroxymethyl)-1H-indol-5-yloxy)-5-methylpyrrolo[1,2-f][1,2,4]triazin-6-yloxy)propane-2-sulfonic acid formation at 2 uM for 60 mins by LC/MS analysis in presence of PAPS. The series is classed as ADME.
Series [6] relates to Liver microsome. The series can be described thus: Drug metabolism in human liver microsomes assessed as (R)-4-fluoro-5-(6-(2-hydroxypropoxy)-5-methylpyrrolo[1,2-f][1,2,4]triazin-4-yloxy)-1H-indole-2-carboxylic acid formation at 2 uM for 60 mins by LC/MS analysis in presence of NADPH. The series is classed as ADME.
The test system of series [7] is Liver cytosol. Kind of series: Drug metabolism in human liver cytosol assessed as sulfate conjugate formation at 2 uM for 60 mins in absence of PAPS by LC/MS analysis. Format: ADME, tissue-based. The conditions noted are these: 1 h.

For `Cc1c(OC[C@@H](C)O)cn2n[14cH]nc(Oc3ccc4[nH]c(CO)cc4c3F)c12`, the Drug metabolism entry was “metabolite_not_detected” in series [1]; “metabolite_detected” in series [2]; “metabolite_detected” in series [3]; “metabolite_detected” in series [4]; “metabolite_detected” in series [5]; “metabolite_detected” in series [6]. In addition, the Drug metabolism entry in series [7] is reported as “metabolite_not_detected”.
